The record followed here is ChEMBL document CHEMBL1201862, “PubChem BioAssay data set” (2004).

What all share (assay): growth of human tumour cells (NCI), 48 h
Experiment [1] deals with A549.
Experiment [2] relates to EKVX.
Experiment [3] deals with HCC 2998.
Experiment [4] has as its system HOP-92.
Experiment [5] deals with HT-29.
In experiment [6] the test system is IGROV-1.
Experiment [7] deals with LOX IMVI.
The subject of experiment [8] is MDA-MB-231.
For experiment [9], the system named is MOLT-4.
Experiment [10] concerns NCI-H460.
Experiment [11] deals with SK-MEL-2.
Experiment [12] concerns SK-OV-3.
The test system of experiment [13] is SN12C.
For experiment [14], the system named is SR.
Experiment [15] deals with UACC-62.
Experiment [16] deals with CCRF-CEM.
Experiment [17] relates to HL-60.
The test system of experiment [18] is SF-539.

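Cells were grown in 96-well plates and exposed to each compound for 48 hours at five concentrations; endpoints were interpolated linearly between bracketing concentrations, or set to the highest concentration if not reached. The concentration for 50% growth inhibition is given as GI50.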 Calls of active or inactive are those of the source. No stated cut-off is given here; in the data, active = GI50 up to about 1.1 µM and inactive = higher.

As to `Cc1cn(CC2=NCC(C)N2)c(=O)[nH]c1=O` (stereo unspecified), the GI50 in experiment [1], in experiment [2], in experiment [3], in [4], in experiment [5] and in experiment [6] was > 100 µM (inactive) throughout. For the same molecule, the GI50 in experiment [7], in experiment [8], in experiment [9], in experiment [10], in experiment [11] and in experiment [12] was > 100 µM (inactive) throughout. The GI50 in experiment [13], in experiment [14] and in [15] was > 100 µM (inactive) each time.

For `O=[N+]([O-])c1cc(-c2ccc([As](=O)(O)O)cc2)ccc1[As](=O)(O)O`, the GI50 in [1], in experiment [16], in experiment [2], in experiment [17], in experiment [4] and in [5] was > 100 µM (inactive) in each case. The GI50 in [6], in [7], in [8], in experiment [9], in experiment [10] and in [11] was > 100 µM (inactive) throughout. For the same molecule, the GI50 in experiment [13], in [14] and in experiment [15] was > 100 µM (inactive) in each case.

With `O=C(O)c1ccc2c(O)c(O)ccc2c1`, the GI50 in experiment [1] is 28 µM (inactive); in experiment [2], 20.8 µM (inactive); in experiment [3] it was 33.3 µM (inactive); in experiment [4] it was 32.8 µM (inactive); in experiment [5], 6.82 µM (inactive); in experiment [6] it was 19.7 µM (inactive). Also, the GI50 in experiment [7] was 5.38 µM (inactive); in experiment [8] it was 29 µM (inactive); in experiment [9], 6.75 µM (inactive); in experiment [18], 4.81 µM (inactive); in experiment [11], 26.8 µM (inactive); in [12], > 43.1 µM (inactive). Besides, the GI50 was 8.61 µM (inactive) in [13], 3.17 µM (inactive) in experiment [14] and > 10 µM (inactive) in [15].

Regarding `O=C1NC(c2ccccc2)N=C2Oc3ccccc3C=C12` (stereo unspecified), the GI50 is 1.73 µM (inactive) in [1]; 0.562 µM (active) in experiment [16]; 0.181 µM (active) in experiment [2]; 0.0277 µM (active) in experiment [3]; 0.212 µM (active) in experiment [17]; 47.2 µM (inactive) in experiment [4]. The GI50 in [5] was 1.68 µM (inactive); in experiment [6], 0.535 µM (active); in experiment [7], 5.12 µM (inactive); in experiment [8], 0.569 µM (active); in experiment [9], 1.69 µM (inactive); in experiment [10], 0.565 µM (active). Also, the GI50 in [18] is 2.6 µM (inactive); in [11] it was 1.26 µM (inactive); in experiment [12], 0.0424 µM (active); in experiment [13], 3.27 µM (inactive); in experiment [15], 0.127 µM (active).

Turning to `CCOC(=O)c1cn(CC)c2ccc3ccsc3c2c1=O`, the GI50 in [1], in experiment [16], in experiment [2], in [3], in experiment [17] and in experiment [4] was > 100 µM (inactive) each time. Also, the GI50 in experiment [5], in [6], in [7], in experiment [8], in experiment [9] and in [10] was > 100 µM (inactive) in each case. The GI50 in [18] was > 100 µM (inactive); in experiment [11], 75.2 µM (inactive); in experiment [12], > 100 µM (inactive); in [15] it was > 100 µM (inactive).

For the molecule `Cc1ncc([N+](=O)[O-])n1CCNS(=O)(=O)CCCn1ccnc1[N+](=O)[O-]`, the GI50 in experiment [1], in experiment [16], in experiment [2], in experiment [17], in experiment [4] and in [5] was > 100 µM (inactive) throughout. The GI50 in experiment [6], in experiment [7], in experiment [8], in [9], in [10] and in experiment [18] was > 100 µM (inactive) in each case. In addition, the GI50 in experiment [11], in experiment [12], in experiment [13], in experiment [14] and in experiment [15] was > 100 µM (inactive) in each case.

For the molecule `CC1=C/C(=N/N2C(=O)/C(=C/c3ccc(Cl)cc3)N=C2c2ccccc2)CC(C)(C)C1`, the GI50 was 78.2 µM (inactive) in [1]; 81.7 µM (inactive) in [2]; > 100 µM (inactive) in experiment [3]; 94.8 µM (inactive) in [4]; 70.5 µM (inactive) in [5]; 52.1 µM (inactive) in [6]. In addition, the GI50 in [7] was 42.1 µM (inactive); in experiment [8], > 100 µM (inactive); in experiment [9], 25 µM (inactive); in experiment [10] it was > 100 µM (inactive); in [18], 47.1 µM (inactive); in [11] it was 24.9 µM (inactive). Also, the GI50 is > 100 µM (inactive) in experiment [12], > 100 µM (inactive) in experiment [13], 31 µM (inactive) in experiment [14] and 61.9 µM (inactive) in experiment [15].

Consider `CCOC(=O)NC(NC(C)CC)(C(F)(F)F)C(F)(F)F` (stereo unspecified), for which the GI50 in experiment [1], in experiment [16], in experiment [2], in experiment [17], in [4] and in experiment [5] was > 100 µM (inactive) in each case. In addition, the GI50 in [6], in [7], in experiment [8], in [9], in experiment [10] and in [18] was > 100 µM (inactive) in each case. The GI50 in experiment [11], in [13], in experiment [14] and in experiment [15] was > 100 µM (inactive) throughout.

For the molecule `O=C(N/N=C(COc1ccc([N+](=O)[O-])cc1)\N=C\c1ccncc1)c1ccncc1`, the GI50 in [1], in [16], in experiment [2], in experiment [3], in experiment [17] and in experiment [5] was > 100 µM (inactive) throughout. The GI50 in experiment [6] was > 100 µM (inactive); in experiment [7], 0.564 µM (active); in experiment [8] it was > 100 µM (inactive); in experiment [9], > 100 µM (inactive); in experiment [10] it was > 100 µM (inactive); in [18], > 100 µM (inactive). Moreover, the GI50 in experiment [11], in experiment [12], in experiment [13] and in experiment [15] was > 100 µM (inactive) each time.

On to `COc1cc(OC)c2c(=O)c(OC)c(-c3ccc4c(c3)OCO4)oc2c1`, for which the GI50 in experiment [1] is > 100 µM (inactive); in [16], > 100 µM (inactive); in experiment [2], 41.7 µM (inactive); in experiment [3] it was > 100 µM (inactive); in [17], 20.9 µM (inactive); in [5], > 100 µM (inactive). Further, the GI50 was 22.1 µM (inactive) in experiment [6]; 15.8 µM (inactive) in experiment [7]; 49.9 µM (inactive) in experiment [8]; > 100 µM (inactive) in experiment [9]; > 100 µM (inactive) in experiment [10]; 18.1 µM (inactive) in experiment [18]. Further, the GI50 in [11] was 19.1 µM (inactive); in [12], 22.8 µM (inactive); in experiment [13], 59.7 µM (inactive); in experiment [15] it was 26 µM (inactive).

Consider `CC(C)N1CCCOC(c2ccc([N+](=O)[O-])cc2)O1` (stereo unspecified), for which the GI50 in experiment [1], in experiment [16], in experiment [2], in [3], in [4] and in experiment [5] was > 100 µM (inactive) each time. The GI50 in experiment [6], in experiment [7], in experiment [8], in experiment [9], in experiment [10] and in [18] was > 100 µM (inactive) throughout. Further, the GI50 in experiment [11], in experiment [12], in experiment [13], in experiment [14] and in experiment [15] was > 100 µM (inactive) each time.

As for `O=C(c1ccccc1)c1ccc2[nH]c(-c3c(Cl)c(Cl)c(Cl)c(Cl)c3C(=O)N/N=C\C=C\c3ccccc3)nc2c1`, the GI50 in experiment [1] was 50.1 µM (inactive); in experiment [16], 12 µM (inactive); in experiment [2], 40.7 µM (inactive); in [17], 37.8 µM (inactive); in experiment [4] it was 41.1 µM (inactive); in experiment [5], 45 µM (inactive). For the same molecule, the GI50 in [6] was 34.4 µM (inactive); in experiment [7] it was 48.9 µM (inactive); in [8] it was 22.6 µM (inactive); in experiment [9] it was 17.7 µM (inactive); in [18], 61 µM (inactive); in experiment [11] it was 37.1 µM (inactive). Moreover, the GI50 in experiment [12] was > 100 µM (inactive); in experiment [13] it was 31.3 µM (inactive); in experiment [14] it was 23.3 µM (inactive).
